Measurements from patent publication US12297194B2, “N2-phenylpyrimidine-2,4-diamine compounds, and preparation methods and methods of use thereof” (BRIDGE BIOTHERAPEUTICS, INC., priority 2021, dated 2025).

Columns and labels:
Assay type in all cases: cell-based, murine
[1] = target: Ba/F3 EGFR L858R/C797S mutants (Homo sapiens, UniProt P00533, C797S/L858R, cells depend on it); assay: CellTiter-Glo cell viability, Ba/F3 EGFR L858R/C797S cells; conditions: 72 hours, read-out: Ba/F3 EGFR mutant cell (IC50, nM) L/C
Summary of the method: (§1)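 EGFR-driven Ba/F3 cells, 2500 per well, exposed 72 h at 37° C to compound (top 2000 nM, ~3-fold steps). Readout: cellular ATP, luminescence; IC50 calculated.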

[2] = target: Ba/F3 EGFR Del19/T790M/C797S mutants (Homo sapiens, UniProt P00533, T790M/C797S, cells depend on it, form not given); assay: CellTiter-Glo cell viability, Ba/F3 EGFR Del19/T790M/C797S cells; conditions: 72 hours, read-out: Ba/F3 EGFR mutant cell (IC50, nM) D/T/C
Summary of the method: as §1

[3] = target: Ba/F3 EGFR Del19/C797S mutants (Homo sapiens, UniProt P00533, C797S, cells depend on it, form not given); assay: CellTiter-Glo cell viability, Ba/F3 EGFR Del19/C797S cells; conditions: 72 hours, read-out: Ba/F3 EGFR mutant cell (IC50, nM) D/C
Summary of the method: as §1

[4] = target: Ba/F3 EGFR Del19/T790M mutants (Homo sapiens, UniProt P00533, T790M, cells depend on it, form not given); assay: CellTiter-Glo cell viability, Ba/F3 EGFR Del19/T790M cells; conditions: 72 hours, read-out: Ba/F3 EGFR mutant cell (IC50, nM) D/T
Summary of the method: as §1

Ba/F3 EGFR Wild-type = Ba/F3 EGFR Wild-type (Homo sapiens, UniProt P00533); assay: CellTiter-Glo cell viability, Ba/F3 EGFR wild-type cells; conditions: 72 hours, read-out: Ba/F3 EGFR mutant cell (IC50, nM) WT
Summary of the method: as §1

[5] = target: Ba/F3 EGFR L858R/T790M/C797S mutants (Homo sapiens, UniProt P00533, T790M/C797S/L858R, cells depend on it); assay: CellTiter-Glo cell viability, Ba/F3 EGFR L858R/T790M/C797S cells; conditions: 72 hours, read-out: Ba/F3 EGFR mutant cell (IC50, nM) L/T/C
Summary of the method: as §1

Sequence of Ba/F3 EGFR L858R/C797S mutants (P00533 whole entry C797S/L858R): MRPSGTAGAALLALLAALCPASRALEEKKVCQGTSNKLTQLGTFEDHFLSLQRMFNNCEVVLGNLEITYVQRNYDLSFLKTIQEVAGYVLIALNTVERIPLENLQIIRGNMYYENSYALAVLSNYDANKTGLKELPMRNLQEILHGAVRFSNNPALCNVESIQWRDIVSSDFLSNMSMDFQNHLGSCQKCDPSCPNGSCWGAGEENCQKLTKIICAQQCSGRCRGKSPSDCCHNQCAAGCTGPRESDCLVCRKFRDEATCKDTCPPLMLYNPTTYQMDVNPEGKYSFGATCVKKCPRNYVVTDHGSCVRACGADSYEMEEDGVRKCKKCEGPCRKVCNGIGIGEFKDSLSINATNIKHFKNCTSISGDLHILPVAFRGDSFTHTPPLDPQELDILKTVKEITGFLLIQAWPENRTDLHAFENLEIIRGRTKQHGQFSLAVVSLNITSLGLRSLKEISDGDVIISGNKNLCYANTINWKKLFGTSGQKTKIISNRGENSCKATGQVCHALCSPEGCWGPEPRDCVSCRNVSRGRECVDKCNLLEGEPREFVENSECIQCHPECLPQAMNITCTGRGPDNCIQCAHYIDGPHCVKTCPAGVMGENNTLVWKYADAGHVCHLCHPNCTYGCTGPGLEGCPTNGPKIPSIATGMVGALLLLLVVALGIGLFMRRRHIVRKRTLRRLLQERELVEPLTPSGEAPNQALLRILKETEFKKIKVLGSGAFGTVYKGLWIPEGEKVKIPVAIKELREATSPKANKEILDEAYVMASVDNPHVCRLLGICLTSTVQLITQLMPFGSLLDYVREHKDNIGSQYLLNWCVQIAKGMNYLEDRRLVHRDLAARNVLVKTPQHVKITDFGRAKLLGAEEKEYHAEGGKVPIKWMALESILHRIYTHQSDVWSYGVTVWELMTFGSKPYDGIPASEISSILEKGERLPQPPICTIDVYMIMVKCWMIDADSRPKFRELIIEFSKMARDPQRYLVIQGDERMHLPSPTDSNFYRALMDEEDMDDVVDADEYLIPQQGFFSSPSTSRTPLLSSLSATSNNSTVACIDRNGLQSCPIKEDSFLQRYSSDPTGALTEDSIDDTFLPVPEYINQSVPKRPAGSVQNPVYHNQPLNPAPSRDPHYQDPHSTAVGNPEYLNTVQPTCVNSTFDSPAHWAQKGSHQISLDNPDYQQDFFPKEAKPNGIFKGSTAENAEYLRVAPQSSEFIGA
Sequence of Ba/F3 EGFR Del19/T790M mutants (P00533 with tags, fused parts or gaps DEL746-750/T790M, form open): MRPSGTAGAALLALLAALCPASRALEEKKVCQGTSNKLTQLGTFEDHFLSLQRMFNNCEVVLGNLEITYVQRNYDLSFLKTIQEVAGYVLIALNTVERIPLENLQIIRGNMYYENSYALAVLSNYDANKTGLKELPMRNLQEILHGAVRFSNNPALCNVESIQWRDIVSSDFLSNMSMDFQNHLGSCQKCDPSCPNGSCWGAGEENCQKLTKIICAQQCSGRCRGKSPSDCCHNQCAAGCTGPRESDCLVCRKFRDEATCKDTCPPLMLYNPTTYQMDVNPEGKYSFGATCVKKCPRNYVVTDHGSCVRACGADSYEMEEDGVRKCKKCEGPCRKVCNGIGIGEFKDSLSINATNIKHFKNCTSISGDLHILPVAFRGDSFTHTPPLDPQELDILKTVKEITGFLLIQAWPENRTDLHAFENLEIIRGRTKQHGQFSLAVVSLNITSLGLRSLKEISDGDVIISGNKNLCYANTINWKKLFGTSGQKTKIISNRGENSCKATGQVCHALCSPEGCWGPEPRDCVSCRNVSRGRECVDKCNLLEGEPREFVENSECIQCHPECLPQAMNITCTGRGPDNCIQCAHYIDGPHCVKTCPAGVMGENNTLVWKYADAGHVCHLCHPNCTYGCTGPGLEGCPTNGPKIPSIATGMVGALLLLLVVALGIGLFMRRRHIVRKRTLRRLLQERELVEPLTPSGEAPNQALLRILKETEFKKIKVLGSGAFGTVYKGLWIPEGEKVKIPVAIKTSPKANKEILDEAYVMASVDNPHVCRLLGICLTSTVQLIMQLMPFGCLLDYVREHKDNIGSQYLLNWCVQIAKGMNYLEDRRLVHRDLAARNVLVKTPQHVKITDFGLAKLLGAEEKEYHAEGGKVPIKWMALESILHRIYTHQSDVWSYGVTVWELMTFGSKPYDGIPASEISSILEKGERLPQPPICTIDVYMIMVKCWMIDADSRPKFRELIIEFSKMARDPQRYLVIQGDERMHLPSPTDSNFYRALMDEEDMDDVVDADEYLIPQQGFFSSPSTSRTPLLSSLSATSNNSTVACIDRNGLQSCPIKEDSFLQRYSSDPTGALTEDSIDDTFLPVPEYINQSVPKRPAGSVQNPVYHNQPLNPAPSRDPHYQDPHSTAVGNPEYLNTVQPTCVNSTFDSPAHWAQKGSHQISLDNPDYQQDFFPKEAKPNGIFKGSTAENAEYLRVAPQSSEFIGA
Sequence of Ba/F3 EGFR L858R/T790M/C797S mutants (P00533 whole entry T790M/C797S/L858R): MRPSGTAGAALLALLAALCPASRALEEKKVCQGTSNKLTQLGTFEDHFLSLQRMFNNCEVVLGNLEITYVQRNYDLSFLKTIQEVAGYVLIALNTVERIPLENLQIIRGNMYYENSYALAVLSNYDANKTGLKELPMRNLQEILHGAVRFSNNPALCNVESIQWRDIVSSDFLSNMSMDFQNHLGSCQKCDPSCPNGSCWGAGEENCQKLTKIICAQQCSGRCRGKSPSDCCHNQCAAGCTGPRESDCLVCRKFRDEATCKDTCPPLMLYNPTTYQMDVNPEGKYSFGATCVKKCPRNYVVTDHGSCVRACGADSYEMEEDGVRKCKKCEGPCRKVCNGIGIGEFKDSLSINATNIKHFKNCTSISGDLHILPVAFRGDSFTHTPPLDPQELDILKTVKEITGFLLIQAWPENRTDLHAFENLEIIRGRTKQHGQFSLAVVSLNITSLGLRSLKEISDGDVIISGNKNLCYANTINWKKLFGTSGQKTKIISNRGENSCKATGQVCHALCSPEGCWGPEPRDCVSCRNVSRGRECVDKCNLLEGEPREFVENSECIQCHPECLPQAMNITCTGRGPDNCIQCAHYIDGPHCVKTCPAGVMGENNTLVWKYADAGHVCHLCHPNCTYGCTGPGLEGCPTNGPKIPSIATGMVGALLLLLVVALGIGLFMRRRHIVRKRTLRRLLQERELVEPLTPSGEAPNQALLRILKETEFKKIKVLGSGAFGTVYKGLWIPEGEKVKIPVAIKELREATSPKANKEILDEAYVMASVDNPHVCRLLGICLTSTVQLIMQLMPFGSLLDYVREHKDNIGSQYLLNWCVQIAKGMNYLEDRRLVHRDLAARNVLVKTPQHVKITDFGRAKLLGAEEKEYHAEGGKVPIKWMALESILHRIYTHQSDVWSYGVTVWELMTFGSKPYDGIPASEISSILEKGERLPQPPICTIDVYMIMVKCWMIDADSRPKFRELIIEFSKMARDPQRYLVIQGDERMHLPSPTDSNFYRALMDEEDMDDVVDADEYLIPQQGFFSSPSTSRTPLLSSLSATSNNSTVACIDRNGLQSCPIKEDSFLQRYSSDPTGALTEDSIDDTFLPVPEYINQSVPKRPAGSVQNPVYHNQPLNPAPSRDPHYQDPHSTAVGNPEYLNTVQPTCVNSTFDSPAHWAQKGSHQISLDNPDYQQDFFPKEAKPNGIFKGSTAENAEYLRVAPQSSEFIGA
Sequence of Ba/F3 EGFR Wild-type (P00533 whole entry, change not shown): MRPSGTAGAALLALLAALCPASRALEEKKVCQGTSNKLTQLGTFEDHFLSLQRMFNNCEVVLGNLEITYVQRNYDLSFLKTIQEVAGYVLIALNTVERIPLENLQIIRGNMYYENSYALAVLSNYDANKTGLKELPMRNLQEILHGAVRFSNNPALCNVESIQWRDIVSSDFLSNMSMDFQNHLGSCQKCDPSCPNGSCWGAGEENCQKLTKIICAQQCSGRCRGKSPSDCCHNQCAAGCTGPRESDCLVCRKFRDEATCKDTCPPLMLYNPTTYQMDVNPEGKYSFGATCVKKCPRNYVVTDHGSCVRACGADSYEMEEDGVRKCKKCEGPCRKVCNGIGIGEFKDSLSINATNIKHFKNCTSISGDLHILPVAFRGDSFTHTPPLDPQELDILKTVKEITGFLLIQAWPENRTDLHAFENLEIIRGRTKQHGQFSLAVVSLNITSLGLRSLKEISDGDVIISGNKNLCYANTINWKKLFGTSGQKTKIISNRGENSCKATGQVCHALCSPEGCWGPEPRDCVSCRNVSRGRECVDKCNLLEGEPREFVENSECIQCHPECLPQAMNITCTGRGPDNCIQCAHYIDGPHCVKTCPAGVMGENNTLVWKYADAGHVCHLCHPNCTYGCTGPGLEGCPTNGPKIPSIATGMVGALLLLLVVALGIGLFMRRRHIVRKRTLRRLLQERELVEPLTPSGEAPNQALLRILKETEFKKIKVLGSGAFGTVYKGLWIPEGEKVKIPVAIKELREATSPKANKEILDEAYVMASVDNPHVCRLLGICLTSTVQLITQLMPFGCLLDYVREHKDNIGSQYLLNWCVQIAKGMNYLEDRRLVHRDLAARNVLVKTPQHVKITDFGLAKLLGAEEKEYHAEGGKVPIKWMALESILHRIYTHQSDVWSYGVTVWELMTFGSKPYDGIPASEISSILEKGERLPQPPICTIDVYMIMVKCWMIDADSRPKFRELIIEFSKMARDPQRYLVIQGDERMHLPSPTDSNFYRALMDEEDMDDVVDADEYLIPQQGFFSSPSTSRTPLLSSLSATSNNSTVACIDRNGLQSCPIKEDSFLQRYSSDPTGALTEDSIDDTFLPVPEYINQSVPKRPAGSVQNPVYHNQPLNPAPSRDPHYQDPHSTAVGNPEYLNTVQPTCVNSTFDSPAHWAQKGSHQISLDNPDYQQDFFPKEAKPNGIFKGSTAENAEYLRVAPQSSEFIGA

| Compound | GI50 [1] [nM] | GI50 [2] [nM] | GI50 [3] [nM] | GI50 [4] [nM] | GI50 (Ba/F3 EGFR Wild-type) [nM] | GI50 [5] [nM] |
| --- | --- | --- | --- | --- | --- | --- |
| CCCc1cc(Nc2ncc(Cl)c(Nc3cccc(OC)c3NS(C)(=O)=O)n2)c(OC)cc1N1CCC(N2CCOCC2)CC1 [Example C23, N-(2-((5-chloro-2-((2-methoxy-4-(4-morpholinopiperidin-1-yl)-5-propylphenyl)amino)pyrimidin-4-yl)amino)-6-methoxyphenyl)methanesulfonamide] | 72 | 10 | 14 | 30 | 1680 | 137 |
| COc1cc(N2CCC(N3CCN(C)CC3)CC2)c(C)cc1Nc1ncc(Cl)c(Nc2cccc(OC)c2NS(C)(=O)=O)n1 [Example C24, N-(2-((5-chloro-2-((2-methoxy-5-methyl-4-(4-(4-methylpiperazin-1-yl)piperidin-1-yl)phenyl)amino)pyrimidin-4-yl)amino)-6-methoxyphenyl)methanesulfonamide] | 41 | 7 | 6 | 14 | 605 | 83 |
| COc1cc(N2CCC(N3CCCC3)CC2)c(C)cc1Nc1ncc(Br)c(Nc2cccc(OC)c2NS(C)(=O)=O)n1 [Example C25, N-(2-((5-bromo-2-((2-methoxy-5-methyl-4-(4-(pyrrolidin-1-yl)piperidin-1-yl)phenyl)amino)pyrimidin-4-yl)amino)-6-methoxyphenyl)methanesulfonamide] | 55 | 6 | 18 | 6 | 707 | 44 |
| COc1ccc(Nc2nc(Nc3cc(C)c(N4CCC(N5CCN(C)CC5)CC4)cc3OC)ncc2Cl)c(NS(C)(=O)=O)c1 [Example C26, N-(2-((5-chloro-2-((2-methoxy-5-methyl-4-(4-(4-methylpiperazin-1-yl)piperidin-1-yl)phenyl)amino)pyrimidin-4-yl)amino)-5-methoxyphenyl)methanesulfonamide] | 35 | 5 | 7 | 8 | 421 | 54 |
| COc1cc(N2CCC(N3CCCC3)CC2)c(C)cc1Nc1ncc(Cl)c(Nc2ccc3c(c2NS(C)(=O)=O)OCCO3)n1 [Example C27, N-(6-((5-chloro-2-((2-methoxy-5-methyl-4-(4-(pyrrolidin-1-yl)piperidin-1-yl)phenyl)amino)pyrimidin-4-yl)amino)-2,3-dihydrobenzo[b][1,4]dioxin-5-yl)methanesulfonamide] | 43 | 15 | 10 | 16 | 565 | 48 |
| CCc1cc(Nc2ncc(Br)c(Nc3ccc4c(c3N(C)S(C)(=O)=O)OCCO4)n2)c(OC)cc1N1CCC(N2CCN(C)CC2)CC1 [Example C28, N-(6-((5-bromo-2-((5-ethyl-2-methoxy-4-(4-(4-methylpiperazin-1-yl)piperidin-1-yl)phenyl)amino)pyrimidin-4-yl)amino)-2,3-dihydrobenzo[b][1,4]dioxin-5-yl)-N-methylmethanesulfonamide] | 68 | 10 | 7 | 10 | 699 | 13 |
| CCc1cc(Nc2ncc(Br)c(Nc3cccc(OC)c3N(C)S(C)(=O)=O)n2)c(OC)cc1N1CCC(N2CCN(C)CC2)CC1 [Example C29, N-(2-((5-bromo-2-((5-ethyl-2-methoxy-4-(4-(4-methylpiperazin-1-yl)piperidin-1-yl)phenyl)amino)pyrimidin-4-yl)amino)-6-methoxyphenyl)-N-methylmethane sulfonamide] | 76 | 5 | 5 | 7 | 669 | 21 |
| CCc1cc(Nc2ncc(Cl)c(Nc3ccc4c(c3N(C)S(C)(=O)=O)OCCO4)n2)c(OC)cc1N1CCC(N2CCOCC2)CC1 [Example C30, N-(6-((5-chloro-2-((5-ethyl-2-methoxy-4-(4-morpholinopiperidin-1-yl)phenyl)amino)pyrimidin-4-yl)amino)-2,3-dihydrobenzo[b][1,4]dioxin-5-yl)-N-methylmethanesulfonamide] | 38 | 13 | 6 | 10 | 664 | 35 |
| CCCc1cc(Nc2ncc(Cl)c(Nc3cccc(OC)c3N(C)S(C)(=O)=O)n2)c(OC)cc1N1CCC(N(C)C)CC1 [Example C31, N-(2-((5-chloro-2-((4-(4-(dimethylamino)piperidin-1-yl)-2-methoxy-5-propylphenyl)amino)pyrimidin-4-yl)amino)-6-methoxyphenyl)-N-methylmethanesulfonamide] | 89 | 20 | 10 | 22 | 698 | 68 |
| CCc1cc(Nc2ncc(Cl)c(Nc3ccc(OC)c(OC)c3N(C)S(C)(=O)=O)n2)c(OC)cc1N1CCC(N2CCOCC2)CC1 [Example C32, N-(6-((5-chloro-2-((5-ethyl-2-methoxy-4-(4-morpholinopiperidin-1-yl)phenyl)amino)pyrimidin-4-yl)amino)-2,3-dimethoxyphenyl)-N-methylmethanesulfonamide] | 82 | 46 | 79 | 176 | 1920 | 191 |
| COc1cc(N2CCOCC2)c(C)cc1Nc1ncc(Br)c(Nc2ccc3nccnc3c2S(C)(=O)=O)n1 [Example D1, 5-bromo-N2-(2-methoxy-5-methyl-4-morpholinophenyl)-N4-(5-(methylsulfonyl)quinoxalin-6-yl)pyrimidine-2,4-diamine] | 1120 | 959 | 1010 | 477 | > 2000 | 536 |
| COc1cc(C2=CCNCC2)c(C)cc1Nc1ncc(Br)c(Nc2ccc3nccnc3c2NS(C)(=O)=O)n1 [Example D2] | 771 | 710 | 462 | 342 | 1430 | 330 |
| COc1cc(C2CCNCC2)ccc1Nc1ncc(Cl)c(Nc2ccc3nccnc3c2NC(C)=O)n1 [Example D3, N-(6-((5-chloro-2-((2-methoxy-4-(piperidin-4-yl)phenyl)amino)pyrimidin-4-yl)amino)quinoxalin-5-yl)acetamide] | 1030 | 717 | 378 | 678 | > 2000 | 1180 |
| COC(=O)Nc1c(Nc2nc(Nc3ccc(C4CCNCC4)cc3OC)ncc2Cl)ccc2nccnc12 [Example D4, methyl (6-((5-chloro-2-((2-methoxy-4-(piperidin-4-yl)phenyl)amino)pyrimidin-4-yl)amino)quinoxalin-5-yl)carbamate] | 1570 | 870 | 746 | 694 | > 2000 | > 2000 |
| CN[C@@H]1CN(c2ccc(Nc3ncc(Cl)c(Nc4ccc5nccnc5c4NS(C)(=O)=O)n3)c(OC)c2)C[C@H]1F [Example D5] | 680 | 699 | 595 | 466 | 1720 | 1320 |
| COc1cc(OC2CNC2)ccc1Nc1ncc(Cl)c(Nc2ccc3nccnc3c2NS(C)(=O)=O)n1 [Example D6, N-(6-((2-((4-(azetidin-3-yloxy)-2-methoxyphenyl)amino)-5-chloropyrimidin-4-yl)amino)quinoxalin-5-yl)methanesulfonamide] | 1130 | 592 | 706 | 800 | > 2000 | 1080 |
